Reference: publication PMC11969009 (Nature Communications, 2025)
Values joined by “and” are separate entries in the source; they are usually repeats but may differ in a detail not shown here. Equal values may be shown once. Read-outs that look alike come from different tables or passages of the source.

How the values were obtained:
SARS-CoV-2 P21 = test system: SARS-CoV-2 P21; set-up: species or system C57BL/6 (WT) mice; settings: mouse, in vivo
[1] = test system: SARS-CoV-2 clinical isolate VIC001; experiment: microbe, parasite or virus in culture; format: cell-based
SARS-CoV PLpro = SARS-CoV PLpro (Severe acute respiratory syndrome coronavirus, UniProt P0C6X7); experiment: biochemical; set-up: inhibition of SARS-CoV PLpro, UbRh dose-response replicate value: unit: %
229E PL2pro = 229E PL2pro (Human coronavirus 229E, UniProt P0C6X1); experiment: biochemical; set-up: inhibition of 229E PL2pro, UbRh dose-response replicate value: unit: %
OC43 PLpro = OC43 PLpro (Human coronavirus OC43, UniProt P0C6X6); format: biochemical; set-up: unit not given here
MERS-CoV PLpro = MERS-CoV PLpro (Middle East respiratory syndrome-related coronavirus, UniProt K9N7C7); format: biochemical; set-up: unit: %
NL63 PL2pro = NL63 PL2pro (Human coronavirus NL63, UniProt P0C6X5); experiment: biochemical; set-up: inhibition of NL63 PL2pro, UbRh dose-response replicate value: unit: %
HKU1 PLpro = HKU1 PLpro (Human coronavirus HKU1, UniProt P0C6X2); experiment: biochemical; format: biochemical; set-up: inhibition of HKU1 PLpro, UbRh dose-response replicate value: unit: %
SARS-CoV-2 PLpro = SARS-CoV-2 PLpro (Severe acute respiratory syndrome coronavirus 2, UniProt P0DTD1); experiment: biochemical
USP21 = USP21 (Homo sapiens, UniProt Q9UK80); format: biochemical

CCO/N=C(/c1ccc2cc(OC)ccc2c1)[C@@H]1CCCN([C@H]2CC[C@@H](O)CC2)C1 [P8-100]
Log2 Fold change IL-4 (SARS-CoV-2 P21): -0.18 | Log2 Fold change IL-9 (SARS-CoV-2 P21): -6.78

CCO/N=C(/c1ccc2cc(OC)ccc2c1)[C@@H]1CCCN([C@H]2CC[C@@H](O)CC2)C1 [P8-150]
Log2 Fold change IL-12p70 (SARS-CoV-2 P21): -2.36

CO/N=C(/c1ccc2cc(OC)ccc2c1)[C@@H]1CCCN([C@H]2CC[C@@H](O)CC2)C1 [WEHI P4]
Ext Data Fig 2f dose response (0 µM = 100) ([1]; concentration 0.01 µM): 109.2308 and 92.5900 and 114.0845 and 104.0541 and 89.7436 | Ext Data Fig 2f dose response (0 µM = 100) ([1]; concentration 0.02 µM): 101.5385 and 95.0600 and 95.7746 and 97.2973 and 106.4103 | Ext Data Fig 2f dose response (0 µM = 100) ([1]; concentration 0.04 µM): 107.6923 and 74.0700 and 95.7746 and 91.8919 and 82.0513 | Ext Data Fig 2f dose response (0 µM = 100) ([1]; concentration 0.08 µM): 93.8462 and 80.2500 and 109.8592 and 101.3514 and 93.5897 | Ext Data Fig 2f dose response (0 µM = 100) ([1]; concentration 5 µM): 0.0000

CO/N=C(/c1ccc2cc(OC)ccc2c1)[C@@H]1CCCN([C@H]2CC[C@@H](c3cc[nH]n3)CC2)C1 [WEHI-P70]
IC50 (SARS-CoV PLpro): 94 nM | inhibition of SARS-CoV PLpro, UbRh dose-response replicate value (SARS-CoV PLpro): 98.7016 and 99.911 and 99.674 and 98.9699 and 100.405 and 100.228 | SARS-CoV PLpro, UbRh hCoV Pan Activity dose-response (SARS-CoV PLpro; Conc 0.0149 µM): 11.412 and 10.2397 and 10.016 and 11.8574 | SARS-CoV PLpro, UbRh hCoV Pan Activity dose-response (SARS-CoV PLpro; Conc 0.0448 µM): 31.6247 and 32.2323 and 27.9576 and 29.7371 | SARS-CoV PLpro, UbRh hCoV Pan Activity dose-response (SARS-CoV PLpro; Conc 3.63 µM): 97.8161 and 97.4695 and 97.9055 and 98.3366 | inhibition of SARS-CoV PLpro, UbRh dose-response replicate value (SARS-CoV PLpro; Conc 98 µM): 99.4348 and 99.7657 and 100.125 | inhibition at 98 µM (SARS-CoV PLpro; Conc 98 µM, read-out: inhibition of SARS-CoV PLpro, UbRh dose-response replicate value): 98.6% | inhibition at […] (SARS-CoV PLpro; read-out: inhibition of SARS-CoV PLpro, UbRh dose-response replicate value): 99.4% | IC50 (229E PL2pro): 26000 nM | inhibition of 229E PL2pro, UbRh dose-response replicate value (229E PL2pro): 46.2136 and 48.684 and 48.4508 and 18.0648 and 22.1853 and 20.9697 | inhibition of 229E PL2pro, UbRh dose-response replicate value (229E PL2pro; Conc 98 µM): 70.621 and 72.3972 and 73.3316 | inhibition at […] (229E PL2pro; read-out: inhibition of 229E PL2pro, UbRh dose-response replicate value): 44.4% and 18.9% | inhibition at 98 µM (229E PL2pro; read-out: inhibition of 229E PL2pro, UbRh dose-response replicate value, Conc 98 µM): 71.9% | inhibition of OC43 PLpro, UbRh dose-response replicate value (OC43 PLpro): -10.4521 and -4.6612 and -0.2116 and -6.41 and -12.4786 and -1.279 and -4.6859 | inhibition of OC43 PLpro, UbRh dose-response replicate value (OC43 PLpro; Conc 98 µM): -8.82 and -6.432 and -0.556 and -3.797 | inhibition of MERS-CoV PLpro, UbRh dose-response replicate value (MERS-CoV PLpro): -8.262 and -6.812 and -8.29 and -8.637 and -10.7207 and -11.1211 and -8.564 and -8.857 | inhibition of MERS-CoV PLpro, UbRh dose-response replicate value (MERS-CoV PLpro; Conc 98 µM): -10.7242 and -11.7377 and -6.2046 and -4.979 | IC50 (NL63 PL2pro): 648 nM | inhibition of NL63 PL2pro, UbRh dose-response replicate value (NL63 PL2pro): 96.5311 and 98.0786 and 97.1472 and 94.6147 and 95.7019 and 95.1407 | NL63 PL2pro, UbRh hCoV Pan Activity dose-response (NL63 PL2pro; Conc 3.63 µM): 86.4411 and 86.623 and 87.2454 and 84.6973 | inhibition of NL63 PL2pro, UbRh dose-response replicate value (NL63 PL2pro; Conc 98 µM): 98.2213 and 99.4112 and 98.0123 | inhibition at 98 µM (NL63 PL2pro; Conc 98 µM, read-out: inhibition of NL63 PL2pro, UbRh dose-response replicate value): 98.4% | inhibition at […] (NL63 PL2pro; read-out: inhibition of NL63 PL2pro, UbRh dose-response replicate value): 97.7% and 95.1% | inhibition of HKU1 PLpro, UbRh dose-response replicate value (HKU1 PLpro): -6.039 and -6.635 and 8.689 and -11.8697 and -9.542 and -8.165 and -7.3684 and -16.402 | inhibition of HKU1 PLpro, UbRh dose-response replicate value (HKU1 PLpro; Conc 98 µM): -3.115 and -4.878 and -6.077 and -8.873 | inhibition at 0.545 µM (SARS-CoV-2 PLpro; Conc 0.545 µM, read-out: SARS-CoV-2 PLpro, UbRh dose-response): 87.3% | inhibition at 1.63 µM (SARS-CoV-2 PLpro; Conc 1.63 µM, read-out: SARS-CoV-2 PLpro, UbRh dose-response): 96.4% | inhibition at 4.9 µM (SARS-CoV-2 PLpro; Conc 4.9 µM, read-out: SARS-CoV-2 PLpro, UbRh dose-response): 102% | IC50 (SARS-CoV-2 PLpro; IC50 (UbRh) SARS-CoV-2 PLpro): 98 nM | inhibition at […] (SARS-CoV-2 PLpro; read-out: SARS-CoV-2 PLpro, UbRh dose-response): 65.3% and 28.1% | selectivity over USP21 (USP21): selective over USP21
